Assay results from paper PMC4236014, “Intestine-Targeted DGAT1 Inhibition Improves Obesity and Insulin Resistance without Skin Aberrations in Mice” (PLoS ONE, 2014).
“And” between values parts separate entries of the source, which are not always exact repeats. Identical values can stand only once. “Also recorded” adds a separate entry of the source.

Key:
[1] = mouse plasma protein binding; format: in vitro ADME
[2] = system: mouse skin homogenates; assay: Triglyceride synthesis in mouse skin homogenates; format: biochemical
[3] = Log D (lipophilicity); format: physicochemical
[4] = Compound distribution in mice (plasma, skin, intestine) after oral 30 mg/kg; format: in vivo, C57BL/6J mice; conditions: for Tmax / concentration at 24 h / Kp / Cmax: C57BL/6J, mouse; for Tmax: in vivo; for concentration at 24 h: intestine, 24 h after administration, read-out: C 24 in intestine; for Kp: intestine/plasma, read-out: Intestine/Plasma ratio at T max; for Cmax: plasma, read-out: C max in plasma; for Cmax / C max in intestine / C max in skin: 3 mice
Method: Exposure was analyzed using blood, skin, and intestine samples from the C57BL/6J mice orally treated with 30 mg/kg of a compound. At 1, 4, 8, and 24 h after the administration, mice were anesthetized with isoflurane, and blood, skin, and intestine samples were collected. Three mice were used in each group. The blood samples were collected with sodium heparin, subjected to centrifugation, and plasma samples were collected. The skin and the intestine were homogenized and centrifuged to collect samples. The compound concentrations in each tissue sample with values equal to or greater than the lower limit of quantification (LLOQ; 0.005 µg/ml) were used for analyses (HPLC-MS/MS: Shiseido, Tokyo, Japan, Thermofisher Scientific, Waltham, MA).

[5] = system: HT-29 human colon cells; assay: Triglyceride synthesis in HT-29 cells (14C oleic acid incorporation); format: cell-based; conditions: Compound A 0.3 to 3 µM, Compound B 0.1 to 3 µM
Method: (§1) The HT-29 cell line (American Type Culture Collection, Manassas, VA) was maintained in the McCoy’s 5A medium (Life Technologies, Carlsbad, CA) containing 10% fetal bovine serum. The HepG2 cell line (American Type Culture Collection) was maintained in the Dulbecco’s Modified Eagle Medium (Sigma-Aldrich, St. Louis, MO) containing 10% fetal bovine serum. For the experiments, the HT-29 cells were plated in 12-well plates at 3×10^5 cells, the HepG2 cells were plated in 12-well plates at 5×10^5 cells. The cells were cultured in serum-free media for 24 h, and incubated with a compound and oleic acid-albumin (Sigma-Aldrich) solubilized in dimethyl sulfoxide (final 0.1%) for 30 min. The triglyceride synthesis was initiated by the addition of ^14C oleic acid (0.2 µCi). The cells were washed in PBS and harvested into the organic phase using hexane:2-propanol (3∶2) 30 min after initiation of the triglyceride synthesis. The solvent was evaporated, the extracts were solubilized in chloroform, and lipids were separated via TLC. Incorporation of the radiolabel into the triglyceride fraction was analyzed using BAS2000 in triplicate. The IC50 of each compound was calculated using GraphPad Prism.

[6] = system: HepG2 human liver cells; assay: Triglyceride synthesis in HepG2 cells (14C oleic acid incorporation); format: cell-based; conditions: Compound A 0.3 to 3 µM, Compound B 0.1 to 3 µM
Method: as §1

[7] = system: skin of diet-induced-obese (DIO) mice; assay: Effects on the skin in diet-induced-obese (DIO) mice, 4-week treatment, histopathology; format: in vivo, C57BL/6J mice; conditions: 4 weeks; for skin aberrations (histopathology): oral, 30 mg/kg Compound A once daily, 30 mg/kg Compound B twice daily, 30 mg/kg
Method: After 10 weeks on high-fat diet, mice became obese (36±0.24 g). […] After 4 weeks of the treatment, all the animals were sacrificed. The skin (dorsolateral lesion) was removed and then fixed in 10% neutral buffered formalin, processed, embedded in paraffin, cut into thin sections and stained with Hematoxylin and Eosin. Histopathological examinations were performed. The size of the sebaceous glands were measured using WinROOF (Mitani Corporation, Tokyo, Japan).

[8] = system: glucagon-like peptide-1 (GLP-1) secretion; assay: GLP-1 secretion in mice after corn oil; format: in vivo; conditions: oral 10 and 30 mg/kg, 2 h after corn oil
Method: Mice were divided into treatment groups, each consisting of 6–8 mice, based on the body weight for the purpose of simplification of dose calculation. […] Blood samples were collected 2 h later, and the plasma GLP-1 level was determined by using Glucagon Like Peptide-1 (Active) ELISA Kit (Linco Research, Inc., St. Charles, MO).

[9] = system: diet-induced-obese (DIO) mice; assay: Long-time (4-week) treatment in DIO mice; format: in vivo, C57BL/6J mice; conditions: 4 weeks
Method: The DIO mice were fed with high-fat diet during the 4-week treatment period. Mice were fasted for 4 hours prior to blood collection. Plasma glucose, insulin, triglyceride, and free fatty acid concentrations were determined by using Glucose CII Test Wako (Wako), ultra sensitive mouse ELISA (Morinaga, Yokohama, Japan), L type WAKO TG H, and HA test WAKO NEFA (Wako), respectively.

[10] = system: postprandial hyperlipidemia in mice; assay: Postprandial hyperlipidemia in mice (corn oil load); format: in vivo, C57BL/6J mice
Method: Eight-week-old male C57BL/6J mice were divided into treatment groups, each consisting of 7–8 mice, based on the body weight for the purpose of simplification of dose calculation. […] Blood samples were collected 1, 2, and 3 h later, and the plasma triglyceride level was determined by using WAKO TG H (Wako, Osaka, Japan). The area under the curve (AUC) of plasma triglyceride (AUCtriglyceride) was calculated.

[11] = target: T1, mouse DGAT1 (Mus musculus, UniProt Q9Z2A7); assay: DGAT1 enzyme assay (mouse DGAT1 in Sf9 insect microsomes, 14C decanoyl CoA); format: biochemical; conditions: enzyme expressed in insect microsomes; read-out: mDGAT1 IC50
T1 construct: made in house; host or cells: Sf9 insect cells (baculovirus)
T1 sequence (Q9Z2A7 1-498): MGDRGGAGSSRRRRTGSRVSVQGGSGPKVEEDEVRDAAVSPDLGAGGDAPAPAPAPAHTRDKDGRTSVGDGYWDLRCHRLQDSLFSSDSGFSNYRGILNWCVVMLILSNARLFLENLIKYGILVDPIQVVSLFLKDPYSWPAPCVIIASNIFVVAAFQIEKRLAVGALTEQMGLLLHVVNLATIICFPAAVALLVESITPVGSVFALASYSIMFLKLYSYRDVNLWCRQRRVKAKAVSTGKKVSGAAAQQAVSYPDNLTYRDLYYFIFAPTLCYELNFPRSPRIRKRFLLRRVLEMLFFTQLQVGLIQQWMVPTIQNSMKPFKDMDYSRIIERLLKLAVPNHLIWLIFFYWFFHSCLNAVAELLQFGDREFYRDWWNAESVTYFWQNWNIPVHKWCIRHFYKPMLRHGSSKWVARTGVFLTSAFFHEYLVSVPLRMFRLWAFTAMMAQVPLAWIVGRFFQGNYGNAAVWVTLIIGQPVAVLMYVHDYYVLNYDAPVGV
Method: (§2) The effects of the DGAT1 inhibitors were assessed using human (BC015762 from HeLa cell) and mouse DGAT1 (NM_010046 from mouse testis) in Sf9 insect microsomes. […] The Sf9 cells were homogenized and centrifuged at 600 g for 20 min. Thereafter, the supernatant was centrifuged at 10000 g for 1 h and the precipitate was collected as the […].
(§3) The mixture was incubated at room temperature for 45 min. The reaction was stopped by adding 0.5 M HCl and the incubated mixture was filtered using MultiscreenHTS-FB (Millipore, Billerica, MA). The human DGAT1 activity was quantified by counting the radioactivity of synthesized ^14C triglycerides by the Microbeta scintillation counter (PerkinElmer, Waltham, MA) in duplicate. […] Mouse DGAT1 enzyme assays were carried out in the same way.

[12] = target: T2, human DGAT1 (Homo sapiens, UniProt O75907); assay: DGAT1 enzyme assay (human DGAT1 in Sf9 insect microsomes, 14C decanoyl CoA); format: biochemical; conditions: enzyme expressed in insect microsomes; read-out: hDGAT1 IC50
T2 construct: made in house; host or cells: Sf9 insect cells (baculovirus)
T2 sequence (O75907 1-488): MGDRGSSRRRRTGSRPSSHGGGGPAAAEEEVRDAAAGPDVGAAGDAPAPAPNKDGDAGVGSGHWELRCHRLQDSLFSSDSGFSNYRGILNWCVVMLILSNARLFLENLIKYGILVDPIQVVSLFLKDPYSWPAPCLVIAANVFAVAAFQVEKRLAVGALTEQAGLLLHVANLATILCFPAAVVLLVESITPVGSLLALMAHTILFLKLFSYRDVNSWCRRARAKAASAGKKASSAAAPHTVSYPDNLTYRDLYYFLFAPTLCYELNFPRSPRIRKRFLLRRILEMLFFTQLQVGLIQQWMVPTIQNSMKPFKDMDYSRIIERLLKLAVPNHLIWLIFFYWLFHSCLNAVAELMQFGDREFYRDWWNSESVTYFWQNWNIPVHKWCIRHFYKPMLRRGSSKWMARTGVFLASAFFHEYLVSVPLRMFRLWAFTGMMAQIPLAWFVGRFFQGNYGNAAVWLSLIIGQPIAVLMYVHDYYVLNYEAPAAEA
Method: as §2, §3

SMILES	fraction unbound [1]	inhibition of triglyceride synthesis [2]	logD [3]	Tmax [4]	concentration at 24 h ([4]; means ± SD)	Kp ([4]; means ± SD)	Cmax ([4]; means ± SD)	C max in intestine ([4]; means ± SD)	C max in skin ([4]; means ± SD)	inhibition of cellular triglyceride synthesis [5]	inhibition of cellular triglyceride synthesis [6]	skin aberrations (histopathology) [7]	other results
CC1(C)Oc2ncnc(N)c2N=C1c1ccc([C@H]2CC[C@H](CC(=O)O)CC2)cc1 [Compound A, 4-[4-(4-amino-2,7,7-trimethyl-7H-pyrimido[4,5-b][1], [4]oxazin-6-yl)phenyl]-trans-Cyclohexaneacetic acid]	0.032	inhibited the cellular triglyceride synthesis	< 0.9	1 h	24 ± 1.6 µM	0.32	240 ± 59 µM	77 ± 37 µmol/kg	14 ± 0.62 µmol/kg	significant inhibition was observed at 1 and 3 µM	at all the concentrations tested	skin aberrations derived from atrophy of the sebaceous gland; also recorded: moderate skin aberrations	injurious or inflammatory changes of the skin ([7]; 30 mg/kg once daily): no injurious or inflammatory changes; recovery of skin aberrations after compound withdrawal ([7]; 30 mg/kg once daily, then withdrawal): 2 weeks
O=C(Nc1ccccc1)Nc1ccc(-c2ccc(C(=O)[C@@H]3CCC[C@H]3C(=O)O)cc2)cc1 [Compound B, (1R, 2R)-2-[[4′-[[(Phenylamino)carbonyl]amino][1,1′-biphenyl]-4-yl]carbonyl]cyclopentanecarboxylic acid]	0.001	inhibited the cellular triglyceride synthesis	< 0.9	1 h	19 ± 3.7 µM	10	9.1 ± 2.3 µM	92 ± 36 µmol/kg	1.3 ± 0.51 µmol/kg	significant inhibition was observed at 1 and 3 µM	at all the concentrations tested	changes in the skin were not observed; also recorded: no skin aberrations	plasma GLP-1 levels after corn oil administration [8]: increased plasma glucagon-like peptide-1 (GLP-1) levels; fatty liver (histological analysis) ([9]; 10 or 30 mg/kg): attenuated fatty liver; body weight gain ([9]; oral 1, 3, 10 or 30 mg/kg twice daily): significant attenuation and significant reduction were observed at 10 mg/kg and 30 mg/kg, respectively; concentration of total-cholesterol in the liver ([9]; oral twice daily): significant reduction was observed at 30 mg/kg; concentration of triglyceride in the liver ([9]; oral twice daily): significant reduction was observed at 30 mg/kg; liver weight ([9]; oral twice daily): lack of differences in the liver weight among the groups; plasma glucose levels ([9]; oral twice daily): significant reduction was observed at 30 mg/kg; plasma insulin concentrations ([9]; oral twice daily): tended to decrease; weight of epididymal fat ([9]; oral twice daily): significant reduction was observed at 30 mg/kg; weight of mesenteric fat ([9]; oral twice daily): significant reduction was observed at 30 mg/kg; plasma triglyceride levels after corn oil ([10]; oral 0.3, 1, 3 or 10 mg/kg 12 h before 3 ml/kg corn oil): reduced plasma triglyceride levels with a dose-dependent tendency; dose of maximum efficacy on plasma triglyceride ([10]; oral, 12 h before corn oil): 10 mg/kg; skin/IC50 (C max in skin/mDGAT1 IC50) ([4]; means ± SD): 0.084±0.033; Intestine/Plasma ratio at T max ([4]; means ± SD, 30 mg/kg): 10±2.8; Intestine/Skin ratio at T max ([4]; means ± SD, 30 mg/kg): 74 and 74±8.4; IC50 [11]: 15.5 nM; IC50 [12]: 8.4 nM
